From patent publication US8669249B2, “Poly (ADP-ribose) polymerase (PARP) inhibitors” (Takeda Pharmaceutical Company Limited, priority 2009, dated 2014)

Molecular target: T1, PARP (Homo sapiens, UniProt P09874)
T1 construct: purchased Trevigen 4684-096-K HT (kit); 4684-096-01 (PARP enzyme)
Assay: PARP ELISA (ELISA-based colorimetric PARP/Apoptosis Assay kit, Trevigen)
Type: biochemical
Conditions: pIC50=-log10 IC50, IC50 in mol/L; inhibition of PARP catalytic activity
Method: Inhibition Constant (IC50) from PARP ELISA
After 10 minutes of catalysis the reaction is quenched by solvent aspiration followed by irrigation of the assay wells 4 times with phosphate buffered saline (PBS) containing 0.1% t-Octylphenoxypolyethoxyethanol (Triton® X-100). Mouse Anti-poly ADP ribose (PAR) monoclonal antibody, goat antimouse immunoglobulin G (IgG)-horse radish peroxidase (HRP) conjugate and HRP substrate are added according to the manufacture's specifications to generate a colorimetric signal proportional to PARP catalytic activity.

T1 sequence (P09874 whole entry): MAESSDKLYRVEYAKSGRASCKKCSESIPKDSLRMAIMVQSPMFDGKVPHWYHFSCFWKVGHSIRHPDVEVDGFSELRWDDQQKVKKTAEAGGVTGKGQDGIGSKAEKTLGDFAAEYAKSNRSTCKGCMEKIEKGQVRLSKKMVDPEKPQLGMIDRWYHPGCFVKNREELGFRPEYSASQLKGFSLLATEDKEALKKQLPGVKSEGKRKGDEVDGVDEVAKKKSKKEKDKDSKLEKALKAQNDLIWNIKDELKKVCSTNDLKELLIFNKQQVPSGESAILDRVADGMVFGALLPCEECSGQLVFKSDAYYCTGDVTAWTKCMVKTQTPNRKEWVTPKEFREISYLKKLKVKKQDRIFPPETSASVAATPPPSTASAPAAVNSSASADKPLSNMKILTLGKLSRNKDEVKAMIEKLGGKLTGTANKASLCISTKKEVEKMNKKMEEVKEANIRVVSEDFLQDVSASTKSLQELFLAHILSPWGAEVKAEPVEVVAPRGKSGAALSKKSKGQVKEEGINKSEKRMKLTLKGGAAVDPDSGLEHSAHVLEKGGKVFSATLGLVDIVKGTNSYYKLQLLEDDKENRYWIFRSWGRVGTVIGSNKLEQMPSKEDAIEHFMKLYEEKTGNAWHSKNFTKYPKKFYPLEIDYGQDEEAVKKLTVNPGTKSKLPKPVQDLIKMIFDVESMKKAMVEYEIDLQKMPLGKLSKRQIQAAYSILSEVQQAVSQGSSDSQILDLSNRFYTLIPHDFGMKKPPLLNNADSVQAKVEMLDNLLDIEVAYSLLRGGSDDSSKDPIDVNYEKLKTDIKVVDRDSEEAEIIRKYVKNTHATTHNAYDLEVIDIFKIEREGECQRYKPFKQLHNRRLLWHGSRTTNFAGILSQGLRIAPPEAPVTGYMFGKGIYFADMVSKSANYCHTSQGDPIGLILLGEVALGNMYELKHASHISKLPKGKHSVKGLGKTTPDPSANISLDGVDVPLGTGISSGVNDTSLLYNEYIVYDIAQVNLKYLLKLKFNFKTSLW

| Structure (SMILES) | IC50 |
| --- | --- |
| CC1Oc2ccc(OC3CCN(c4ccc(C(=O)NC5CC5)cc4)CC3)cc2NC1=O (stereo not drawn) [Compound 397, N-Cyclopropyl-4-(4-(2-methyl-3-oxo-3,4-dihydro-2H-benzo[b][1,4]oxazin-6-yloxy)piperidin-1-yl)benzamide] | > 200 nM |
| CC1Oc2cc(F)c(CN3CCN(c4ccc(Cl)cc4)CC3)cc2NC1=O (stereo not drawn) [Compound 330, 6-((4-(4-Chlorophenyl)piperazin-1-yl)methyl)-7-fluoro-2-methyl-2H-benzo[b][1,4]oxazin-3(4H)-one] | > 200 nM |
| CCOC(=O)c1ccc(N2CCN(Cc3cc(F)c4c(c3)NC(=O)C(C)O4)CC2)nc1 (stereo not drawn) [Compound 312, Ethyl 6-(4-((8-fluoro-2-methyl-3-oxo-3,4-dihydro-2H-benzo[b][1,4]oxazin-6-yl)methyl)piperazin-1-yl)nicotinate] | > 200 nM |
| CC1Oc2c(Cl)cc(CN3CCN(c4ccc(C(=O)NC5CC5)cc4)CC3)cc2NC1=O (stereo not drawn) [Compound 311, 4-(4-((8-Chloro-2-methyl-3-oxo-3,4-dihydro-2H-benzo[b][1,4]oxazin-6-yl)methyl)piperazin-1-yl)-N-cyclopropylbenzamide] | 39.8 nM |
| CCNC(=O)c1ccc(N2CCC(Cc3ccc4c(c3)NC(=O)C(C)O4)CC2)cc1 (stereo not drawn) [Compound 393, N-Ethyl-4-(4-((2-methyl-3-oxo-3,4-dihydro-2H-benzo[b][1,4]oxazin-6-yl)methyl)piperidin-1-yl)benzamide] | > 200 nM |
| CC1Oc2ccc(CN3CCN(c4ccc(NC(=O)c5ccccc5)cc4)CC3)cc2NC1=O (stereo not drawn) [Compound 248, N-(4-(4-((2-Methyl-3-oxo-3,4-dihydro-2H-benzo[b][1,4]oxazin-6-yl)methyl)piperazin-1-yl)phenyl)benzamide] | ≥ 126 nM |
| CCOC(=O)c1ccc(N2CCC(Oc3ccc4c(c3)NC(=O)C(C)O4)CC2)cc1 (stereo not drawn) [Compound 394, Ethyl 4-(4-(2-methyl-3-oxo-3,4-dihydro-2H-benzo[b][1,4]oxazin-6-yloxy)piperidin-1-yl)benzoate] | > 200 nM |
| CC1Oc2cc(F)c(CN3CCC(c4ccc(Cl)cc4)CC3)cc2NC1=O (stereo not drawn) [Compound 332, 6-((4-(4-Chlorophenyl)piperidin-1-yl)methyl)-7-fluoro-2-methyl-2H-benzo[b][1,4]oxazin-3(4H)-one] | > 200 nM |
| CCN(C)C(=O)c1ccc(N2CCN(Cc3ccc4c(c3)NC(=O)C(C)O4)CC2)cc1 (stereo not drawn) [Compound 379, N-Ethyl-N-methyl-4-(4-((2-methyl-3-oxo-3,4-dihydro-2H-benzo[b][1,4]oxazin-6-yl)methyl)piperazin-1-yl)benzamide] | > 200 nM |
| CCC(=O)Nc1ccc(N2CCN(Cc3ccc4c(c3)NC(=O)C(C)O4)CC2)cc1 (stereo not drawn) [Compound 246, N-(4-(4-((2-Methyl-3-oxo-3,4-dihydro-2H-benzo[b][1,4]oxazin-6-yl)methyl)piperazin-1-yl)phenyl)propionamide] | ≥ 126 nM |
| CCOC(=O)c1ccc(N2CCN(Cc3cc4c(cc3F)OC(C)C(=O)N4)CC2)cc1 (stereo not drawn) [Compound 333, Ethyl 4-(4-((7-fluoro-2-methyl-3-oxo-3,4-dihydro-2H-benzo[b][1,4]oxazin-6-yl)methyl)piperazin-1-yl)benzoate] | > 200 nM |
| CCNC(=O)c1ccc(N2CCN(Cc3cc4c(c(-c5ccccc5)c3)OC(C)C(=O)N4)CC2)cc1 (stereo not drawn) [Compound 349, N-Ethyl-4-(4-((2-methyl-3-oxo-8-phenyl-3,4-dihydro-2H-benzo[b][1,4]oxazin-6-yl)methyl)piperazin-1-yl)benzamide] | > 200 nM |
| CC1Oc2ccc(CN3CCN(c4ccc(NC(=O)C5CC5)cc4)CC3)cc2NC1=O (stereo not drawn) [Compound 247, N-(4-(4-((2-methyl-3-oxo-3,4-dihydro-2H-benzo[b][1,4]oxazin-6-yl)methyl)piperazin-1-yl)phenyl)cyclopropanecarboxamide] | ≥ 126 nM |
| CC1Oc2c(F)cc(CN3CCN(c4ccc(C(=O)NC5CC5)cn4)CC3)cc2NC1=O (stereo not drawn) [Compound 317, N-Cyclopropyl-6-(4-((8-fluoro-2-methyl-3-oxo-3,4-dihydro-2H-benzo[b][1,4]oxazin-6-yl)methyl)piperazin-1-yl)nicotinamide] | 50.1 nM |
| CC(C)NC(=O)c1ccc(N2CCN(Cc3cc(Cl)c4c(c3)NC(=O)C(C)O4)CC2)cc1 (stereo not drawn) [Compound 310, 4-(4-((8-Chloro-2-methyl-3-oxo-3,4-dihydro-2H-benzo[b][1,4]oxazin-6-yl)methyl)piperazin-1-yl)-N-isopropylbenzamide] | 31.6 nM |
| Cc1c(CN2CCN(c3ccc(Cl)cc3)CC2)ccc2c1NC(=O)C(C)O2 (stereo not drawn) [Compound 325, 6-((4-(4-Chlorophenyl)piperazin-1-yl)methyl)-2,5-dimethyl-2H-benzo[b][1,4]oxazin-3(4H)-one] | > 200 nM |
| CNC(=O)c1ccc(N2CCC(Oc3ccc4c(c3)NC(=O)C(C)O4)CC2)cc1 (stereo not drawn) [Compound 395, N-Methyl-4-(4-(2-methyl-3-oxo-3,4-dihydro-2H-benzo[b][1,4]oxazin-6-yloxy)piperidin-1-yl)benzamide] | > 200 nM |

| Structure (SMILES) | IC50 |
| --- | --- |
| CC1Oc2cc(F)c(CN3CCN(c4ccc(C(=O)O)cc4)CC3)cc2NC1=O (stereo not drawn) [Compound 334, 4-(4-((7-Fluoro-2-methyl-3-oxo-3,4-dihydro-2H-benzo[b][1,4]oxazin-6-yl)methyl)piperazin-1-yl)benzoic acid] | > 200 nM |
| CC(C)(C)OC(=O)N1CCN(Cc2ccc3c(c2)NC(=O)CO3)CC1 [Compound 357, tert-Butyl 4-((3-oxo-3,4-dihydro-2H-benzo[b][1,4]oxazin-6-yl)methyl)piperazine-1-carboxylate] | > 200 nM |
| CC(C)NC(=O)c1ccc(N2CCC(Cc3ccc4c(c3)NC(=O)C(C)O4)CC2)cc1 (stereo not drawn) [Compound 391, N-Isopropyl-4-(4-((2-methyl-3-oxo-3,4-dihydro-2I-benzo[b][1,4]oxazin-6-yl)methyl)piperidin-1-yl)benzamide] | > 200 nM |
| C=CCc1cc(CN2CCN(c3ccc(C(=O)NCC)cc3)CC2)cc2c1OC(C)C(=O)N2 (stereo not drawn) [Compound 356, 4-(4-((8-Allyl-2-methyl-3-oxo-3,4-dihydro-2H-benzo[b][1,4]oxazin-6-yl)methyl)piperazin-1-yl)-N-ethylbenzamide] | 79.4 nM |
| Cc1c(CN2CCC(c3ccc(Cl)cc3)CC2)ccc2c1NC(=O)C(C)O2 (stereo not drawn) [Compound 327, 6-((4-(4-Chlorophenyl)piperidin-1-yl)methyl)-2,5-dimethyl-2H-benzo[b][1,4]oxazin-3(4H)-one] | > 200 nM |
| CC1Oc2c(Cl)cc(CN3CCC(c4ccc(Cl)cc4)CC3)cc2NC1=O (stereo not drawn) [Compound 165, 8-Chloro-6-((4-(4-chlorophenyl)piperidin-1-yl)methyl)-2-methyl-2H-benzo[b][1,4]oxazin-3(4H)-one] | ≥ 126 nM |
| CC(C)NC(=O)c1ccc(N2CCN(Cc3cc(F)c4c(c3)NC(=O)C(C)O4)CC2)nc1 (stereo not drawn) [Compound 316, 6-(4-((8-Fluoro-2-methyl-3-oxo-3,4-dihydro-2H-benzo[b][1,4]oxazin-6-yl)methyl)piperazin-1-yl)-N-isopropylnicotinamide] | 100 nM |
| CC1Oc2ccc(CN3CCN(c4ccc(C(=O)N(C)C)cc4)CC3)cc2NC1=O (stereo not drawn) [Compound 378, N,N-Dimethyl-4-(4-((2-methyl-3-oxo-3,4-dihydro-2H-benzo[b][1,4]oxazin-6-yl)methyl)piperazin-1-yl)benzamide] | > 200 nM |
| CCNC(=O)c1ccc(N2CCC(Oc3ccc4c(c3)NC(=O)C(C)O4)CC2)cc1 (stereo not drawn) [Compound 396, N-Ethyl-4-(4-(2-methyl-3-oxo-3,4-dihydro-2H-benzo[b][1,4]oxazin-6-yloxy)piperidin-1-yl)benzamide] | > 200 nM |
| CC1Oc2c(F)cc(CN3CCN(c4ccc(C(=O)O)cn4)CC3)cc2NC1=O (stereo not drawn) [Compound 313, 6-(4-((8-Fluoro-2-methyl-3-oxo-3,4-dihydro-2H-benzo[b][1,4]oxazin-6-yl)methyl)piperazin-1-yl)nicotinic acid] | > 200 nM |
| CC(=O)Nc1ccc(N2CCN(Cc3ccc4c(c3)NC(=O)C(C)O4)CC2)cc1 (stereo not drawn) [Compound 245, N-(4-(4-((2-Methyl-3-oxo-3,4-dihydro-2H-benzo[b][1,4]oxazin-6-yl)methyl)piperazin-1-yl)phenyl)acetamide] | ≥ 126 nM |
| CCNC(=O)c1ccc(N2CCN(Cc3cc(F)c4c(c3)NC(=O)C(C)O4)CC2)nc1 (stereo not drawn) [Compound 315, N-Ethyl-6-(4-((8-fluoro-2-methyl-3-oxo-3,4-dihydro-2H-benzo[b][1,4]oxazin-6-yl)methyl)piperazin-1-yl)nicotinamide] | 50.1 nM |
| CC1Oc2ccc(CC3CCN(c4ccc(C(=O)NC5CC5)cc4)CC3)cc2NC1=O (stereo not drawn) [Compound 392, N-Cyclopropyl-4-(4-((2-methyl-3-oxo-3,4-dihydro-2I-benzo[b][1,4]oxazin-6-yl)methyl)piperidin-1-yl)benzamide] | > 200 nM |
| CC1Oc2c(Cl)cc(CN3CCN(c4ccc(C(=O)O)cc4)CC3)cc2NC1=O (stereo not drawn) [Compound 307, 4-(4-((8-Chloro-2-methyl-3-oxo-3,4-dihydro-2H-benzo[b][1,4]oxazin-6-yl)methyl)piperazin-1-yl)benzoic acid] | > 200 nM |
| Cc1cc2c(cc1CN1CCC(c3ccc(Cl)cc3)CC1)NC(=O)C(C)O2 (stereo not drawn) [Compound 322, 6-((4-(4-Chlorophenyl)piperidin-1-yl)methyl)-2,7-dimethyl-2H-benzo[b][1,4]oxazin-3(4H)-one] | > 200 nM |
| Cc1c(CN2CC=C(c3ccc(Cl)cc3)CC2)ccc2c1NC(=O)C(C)O2 (stereo not drawn) [Compound 326, 6-((4-(4-Chlorophenyl)-5,6-dihydropyridin-1(2H)-yl)methyl)-2,5-dimethyl-2H-benzo[b][1,4]oxazin-3(4H)-one] | > 200 nM |
